Measured values taken from ChEMBL document CHEMBL1201862, “PubChem BioAssay data set” (2004).
Active and inactive are the calls of the source.

Experiments:
[1] = target: Acyl-homoserine lactone acylase PvdQ (Pseudomonas aeruginosa (strain LESB58), UniProt Q9I194); assay: P. aeruginosa PvdQ acylase inhibitors, dose response, biochemical, fluorescence, plate reader and imaging, cherry-picks (AID 493231)
[2] = target: T1, Protein skinhead-1 (Caenorhabditis elegans, UniProt P34707); assay type: functional
T1 sequence (P34707 whole entry): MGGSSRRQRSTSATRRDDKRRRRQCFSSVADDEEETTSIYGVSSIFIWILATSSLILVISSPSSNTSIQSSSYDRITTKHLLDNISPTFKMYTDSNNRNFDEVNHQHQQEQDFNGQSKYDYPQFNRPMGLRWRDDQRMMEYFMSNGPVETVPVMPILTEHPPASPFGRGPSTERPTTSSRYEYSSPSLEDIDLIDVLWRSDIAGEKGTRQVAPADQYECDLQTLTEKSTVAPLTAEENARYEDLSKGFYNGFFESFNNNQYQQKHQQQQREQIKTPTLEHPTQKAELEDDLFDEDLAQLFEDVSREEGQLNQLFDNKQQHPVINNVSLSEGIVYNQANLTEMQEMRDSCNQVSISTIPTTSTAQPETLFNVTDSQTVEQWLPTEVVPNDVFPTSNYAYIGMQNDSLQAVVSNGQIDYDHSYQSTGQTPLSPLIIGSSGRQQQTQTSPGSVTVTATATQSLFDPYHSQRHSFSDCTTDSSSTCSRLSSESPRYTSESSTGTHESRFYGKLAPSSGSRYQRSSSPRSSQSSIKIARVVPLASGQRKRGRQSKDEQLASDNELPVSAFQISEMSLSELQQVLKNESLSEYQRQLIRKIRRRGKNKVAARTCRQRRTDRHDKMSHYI

[3] = target: Eukaryotic translation initiation factor 4H (Homo sapiens, UniProt Q15056); assay: human eIF4H binding inhibitors, primary screen, translation initiation inhibitor project, biochemical, uHTS, fluorescence polarization (AID 2012)
[4] = target: Polyadenylate-binding protein 1 (Homo sapiens, UniProt P11940); assay: PABP poly(A) RNA binding inhibitors, primary screen, biochemical, fluorescence polarization, uHTS (AID 2014)
Polyadenylate-binding protein 1, sequence (P11940 whole entry): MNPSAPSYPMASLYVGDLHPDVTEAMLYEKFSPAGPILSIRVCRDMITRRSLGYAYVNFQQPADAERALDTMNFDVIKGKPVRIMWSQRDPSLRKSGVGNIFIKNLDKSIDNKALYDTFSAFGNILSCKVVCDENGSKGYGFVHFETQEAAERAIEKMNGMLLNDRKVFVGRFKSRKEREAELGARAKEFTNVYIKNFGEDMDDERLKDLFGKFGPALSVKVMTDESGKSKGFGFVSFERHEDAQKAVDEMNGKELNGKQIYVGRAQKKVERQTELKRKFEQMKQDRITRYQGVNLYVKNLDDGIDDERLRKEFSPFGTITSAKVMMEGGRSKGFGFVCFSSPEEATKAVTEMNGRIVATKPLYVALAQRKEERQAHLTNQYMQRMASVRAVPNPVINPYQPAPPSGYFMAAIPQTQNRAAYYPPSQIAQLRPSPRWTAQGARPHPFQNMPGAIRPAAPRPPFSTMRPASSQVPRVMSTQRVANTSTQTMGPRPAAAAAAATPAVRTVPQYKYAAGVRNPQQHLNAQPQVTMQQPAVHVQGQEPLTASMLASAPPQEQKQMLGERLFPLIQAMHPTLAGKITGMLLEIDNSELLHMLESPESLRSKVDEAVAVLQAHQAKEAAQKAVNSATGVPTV

[5] = NIH-3T3 fibroblast cytotoxicity, dose response, cytotoxicity control, cell-based, fluorescence, Alamar Blue, secondary assay (AID 2327); assay type: functional;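 also: NIH-3T3 mouse fibroblasts cultured with fluconazole at 8 µg/mL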
[6] = inhibitors of firefly luciferase expression or activity, dose response, H4 neuroglioma cells, luminescence (AID 1990); assay type: functional, cell-based
[7] = Luminescence Cell-Based Dose Response HTS to Identify Inhibitors of 5'UTR Stem-Loop Driven Prion Protein mRNA Translation in H4 Neuroglioblastoma Cells. [Related pubchem assays: 1827 (Project Summary), 1813 (Primary HTS)]; assay type: functional
[8] = inhibitors of SNCA 5'UTR-driven reporter translation, confirmation, H4 neuroglioma cells, luminescence (AID 1988); assay type: functional, cell-based
[9] = target: Transitional endoplasmic reticulum ATPase (Homo sapiens, UniProt P55072, C522A); assay: C522A mutant p97 ATPase inhibitors, dose response, counter-screen for p97 inhibitor project, biochemical, luminescence (AID 1544)
Transitional endoplasmic reticulum ATPase (Homo sapiens, UniProt P55072, C522A), sequence (P55072 2-806 C522A limits assumed): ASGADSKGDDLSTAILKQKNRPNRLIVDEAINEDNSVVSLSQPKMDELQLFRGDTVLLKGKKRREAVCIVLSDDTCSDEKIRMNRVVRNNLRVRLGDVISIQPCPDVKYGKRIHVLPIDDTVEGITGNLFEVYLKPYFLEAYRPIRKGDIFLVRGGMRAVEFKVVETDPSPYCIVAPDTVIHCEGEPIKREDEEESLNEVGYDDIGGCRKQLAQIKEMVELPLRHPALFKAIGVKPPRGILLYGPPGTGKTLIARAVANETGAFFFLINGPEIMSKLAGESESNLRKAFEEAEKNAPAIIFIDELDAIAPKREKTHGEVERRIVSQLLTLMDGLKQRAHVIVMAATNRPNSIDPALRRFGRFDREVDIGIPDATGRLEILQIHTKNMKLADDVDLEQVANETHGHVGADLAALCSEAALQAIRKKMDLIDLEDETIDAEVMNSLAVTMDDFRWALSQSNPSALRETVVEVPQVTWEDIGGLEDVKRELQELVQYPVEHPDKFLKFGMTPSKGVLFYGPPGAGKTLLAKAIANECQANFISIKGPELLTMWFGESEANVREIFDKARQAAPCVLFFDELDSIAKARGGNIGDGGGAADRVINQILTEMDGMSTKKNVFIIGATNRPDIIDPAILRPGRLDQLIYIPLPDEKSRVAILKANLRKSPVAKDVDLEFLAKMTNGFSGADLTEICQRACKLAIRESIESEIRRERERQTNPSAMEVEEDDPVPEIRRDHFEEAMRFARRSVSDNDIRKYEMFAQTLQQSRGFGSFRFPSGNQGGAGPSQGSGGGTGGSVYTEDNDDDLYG

[10] = growth suppression of PTEN-null colon cells, dose response, cell-based, HCT116 PTEN knockout (AID 1047); assay type: functional;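 also: HCT116 colon tumor cells with PTEN knocked out; cells exposed to compound for 60 hours before readout; potency for loss of cell viability measured by luminescence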
[11] = target: T2, Calpain-2 catalytic subunit (Sus scrofa, UniProt P43367); assay: pig calpain II inhibitor potency, dose response, biochemical, fluorogenic peptide substrate (AID 1420); assay type: functional
T2 sequence (P43367 whole entry): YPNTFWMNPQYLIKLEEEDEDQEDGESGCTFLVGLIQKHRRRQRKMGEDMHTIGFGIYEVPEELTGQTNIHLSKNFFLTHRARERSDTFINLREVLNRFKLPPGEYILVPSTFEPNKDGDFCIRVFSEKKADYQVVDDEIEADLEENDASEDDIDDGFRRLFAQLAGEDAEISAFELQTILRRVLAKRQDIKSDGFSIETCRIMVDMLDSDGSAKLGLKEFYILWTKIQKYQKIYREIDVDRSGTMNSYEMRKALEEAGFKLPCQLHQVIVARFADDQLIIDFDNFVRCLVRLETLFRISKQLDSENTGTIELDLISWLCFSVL

[12] = growth suppression of beta-catenin-knockout colon cells, dose response, cell-based, HCT116, human colon tumor (AID 1045); assay type: functional;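 also: HCT116 colon tumor cells with beta catenin knocked out; cells exposed to compound for 60 hours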
[13] = target: Transitional endoplasmic reticulum ATPase (Homo sapiens, UniProt P55072); assay: p97 ATPase inhibitors, dose response, biochemical (AID 1534)
Transitional endoplasmic reticulum ATPase (Homo sapiens, UniProt P55072), sequence (P55072 whole entry): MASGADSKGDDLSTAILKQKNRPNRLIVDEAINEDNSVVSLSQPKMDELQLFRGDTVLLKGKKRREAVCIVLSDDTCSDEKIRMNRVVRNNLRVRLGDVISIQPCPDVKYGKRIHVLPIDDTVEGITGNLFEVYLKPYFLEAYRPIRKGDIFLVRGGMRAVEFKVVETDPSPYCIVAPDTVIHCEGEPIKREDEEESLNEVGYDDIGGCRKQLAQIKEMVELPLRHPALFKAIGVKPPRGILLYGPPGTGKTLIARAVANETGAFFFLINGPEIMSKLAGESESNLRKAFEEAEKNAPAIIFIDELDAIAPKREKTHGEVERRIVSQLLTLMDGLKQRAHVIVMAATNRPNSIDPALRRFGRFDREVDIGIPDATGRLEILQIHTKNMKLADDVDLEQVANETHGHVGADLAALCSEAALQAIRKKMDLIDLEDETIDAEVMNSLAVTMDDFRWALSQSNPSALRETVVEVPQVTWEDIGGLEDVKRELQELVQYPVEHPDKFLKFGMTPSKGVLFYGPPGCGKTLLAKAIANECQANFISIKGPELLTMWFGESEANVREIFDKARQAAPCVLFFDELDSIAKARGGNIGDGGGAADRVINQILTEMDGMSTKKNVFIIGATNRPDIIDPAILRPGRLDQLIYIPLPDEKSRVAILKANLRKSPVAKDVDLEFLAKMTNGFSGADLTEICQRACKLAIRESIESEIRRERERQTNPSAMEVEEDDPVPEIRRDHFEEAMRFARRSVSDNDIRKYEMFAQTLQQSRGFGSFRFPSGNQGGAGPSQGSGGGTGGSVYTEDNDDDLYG

[14] = target: T3, Bcl-2-related protein A1 (Mus musculus, UniProt Q07440); assay type: functional;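 also: confirmatory dose–response counterscreen on Bfl-1, used to check hits from a UBC13 polyubiquitin inhibitor campaign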
T3 sequence (Q07440 whole entry): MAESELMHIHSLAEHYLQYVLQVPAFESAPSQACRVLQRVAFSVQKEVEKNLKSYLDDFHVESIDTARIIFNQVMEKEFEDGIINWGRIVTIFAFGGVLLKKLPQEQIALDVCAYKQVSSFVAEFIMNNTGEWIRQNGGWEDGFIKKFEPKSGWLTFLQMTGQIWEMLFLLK

[15] = target: T4, Ubiquitin-conjugating enzyme E2 N (Homo sapiens, UniProt P61088); assay type: functional
T4 sequence (P61088 whole entry): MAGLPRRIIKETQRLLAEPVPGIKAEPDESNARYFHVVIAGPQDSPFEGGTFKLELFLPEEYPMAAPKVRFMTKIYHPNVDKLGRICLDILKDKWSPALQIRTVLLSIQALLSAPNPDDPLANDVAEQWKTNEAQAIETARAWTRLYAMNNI

[16] = target: T4, Ubiquitin-conjugating enzyme E2 N; assay type: functional; remark: listed apart in the source
[17] = target: T5, Eukaryotic translation initiation factor 2-alpha kinase 3 (Homo sapiens, UniProt Q9NZJ5); assay: Dose response cell-based high-throughput screening assay to measure PERK inhibition. [Related pubchem assays: 1416 ]; assay type: functional
T5 sequence (Q9NZJ5 whole entry): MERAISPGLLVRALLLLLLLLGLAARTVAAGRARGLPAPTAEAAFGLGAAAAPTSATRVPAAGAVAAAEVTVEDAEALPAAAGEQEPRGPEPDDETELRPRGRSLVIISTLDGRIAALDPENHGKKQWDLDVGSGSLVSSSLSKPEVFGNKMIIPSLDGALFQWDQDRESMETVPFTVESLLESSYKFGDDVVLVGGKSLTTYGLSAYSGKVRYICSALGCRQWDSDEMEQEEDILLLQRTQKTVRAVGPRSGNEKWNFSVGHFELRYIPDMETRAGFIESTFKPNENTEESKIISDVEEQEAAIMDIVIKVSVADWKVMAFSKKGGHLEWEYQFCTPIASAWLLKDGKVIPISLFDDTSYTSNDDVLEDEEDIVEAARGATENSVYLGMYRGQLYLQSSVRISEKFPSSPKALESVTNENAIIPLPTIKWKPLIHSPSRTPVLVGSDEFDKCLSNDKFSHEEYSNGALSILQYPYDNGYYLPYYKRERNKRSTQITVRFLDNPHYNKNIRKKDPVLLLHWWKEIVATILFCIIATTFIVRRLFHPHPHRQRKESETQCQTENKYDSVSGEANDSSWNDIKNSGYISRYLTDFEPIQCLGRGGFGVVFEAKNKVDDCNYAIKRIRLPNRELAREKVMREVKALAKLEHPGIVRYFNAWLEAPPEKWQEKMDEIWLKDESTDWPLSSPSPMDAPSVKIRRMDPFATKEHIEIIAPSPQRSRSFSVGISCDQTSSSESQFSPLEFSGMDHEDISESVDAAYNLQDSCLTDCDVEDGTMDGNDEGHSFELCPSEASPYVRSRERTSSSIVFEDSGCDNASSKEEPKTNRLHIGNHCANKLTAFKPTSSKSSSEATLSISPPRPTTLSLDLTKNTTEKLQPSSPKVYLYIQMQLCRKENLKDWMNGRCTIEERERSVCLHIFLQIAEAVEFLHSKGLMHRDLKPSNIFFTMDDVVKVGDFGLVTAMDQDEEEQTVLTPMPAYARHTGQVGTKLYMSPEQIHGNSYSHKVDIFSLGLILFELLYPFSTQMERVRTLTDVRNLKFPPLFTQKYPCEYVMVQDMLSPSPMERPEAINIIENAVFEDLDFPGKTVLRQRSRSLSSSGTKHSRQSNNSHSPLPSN

[18] = target: T5, Eukaryotic translation initiation factor 2-alpha kinase 3; assay: Counterscreen assay for PERK inhibitors: Dose response cell-based high throughput screening assay to measure inhibition of PERK at 6 hours. [Related pubchem assays: 1522, 1416 ]; assay type: functional
[19] = target: T6, Caspase-6 (Homo sapiens, UniProt P55212); assay: human caspase-6 inhibitors, dose response, biochemical, VEID-R110 fluorescence, cherry-pick (AID 720632)
T6 sequence (P55212 whole entry): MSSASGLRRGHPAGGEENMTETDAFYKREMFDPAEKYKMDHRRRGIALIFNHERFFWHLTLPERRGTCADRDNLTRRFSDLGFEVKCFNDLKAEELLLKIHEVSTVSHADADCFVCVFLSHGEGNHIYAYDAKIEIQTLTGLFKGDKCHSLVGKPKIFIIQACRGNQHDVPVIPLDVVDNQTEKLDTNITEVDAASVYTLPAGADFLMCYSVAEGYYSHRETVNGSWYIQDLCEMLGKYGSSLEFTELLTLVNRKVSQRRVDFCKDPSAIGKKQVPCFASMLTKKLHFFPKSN

[20] = target: Guanyl-specific ribonuclease T1 (Aspergillus oryzae (strain ATCC 42149 / RIB 40), UniProt P00651); assay: RNase T1 inhibitors, dose response, counter-screen for TPT1 inhibitor project, biochemical, fluorescence polarization, 1536-well (AID 2167)
Guanyl-specific ribonuclease T1, sequence (P00651 whole entry): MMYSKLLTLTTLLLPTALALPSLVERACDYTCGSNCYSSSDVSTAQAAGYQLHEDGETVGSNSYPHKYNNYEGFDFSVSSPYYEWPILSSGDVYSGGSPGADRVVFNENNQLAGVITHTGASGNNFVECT

[21] = target: Likely tRNA 2'-phosphotransferase (Candida albicans (strain SC5314 / ATCC MYA-2876) (Yeast), UniProt Q5A7N4); assay: TPT1 tRNA phosphotransferase inhibitors, dose response, biochemical, fluorescence polarization (AID 2160)
Likely tRNA 2'-phosphotransferase, sequence (Q5A7N4 whole entry): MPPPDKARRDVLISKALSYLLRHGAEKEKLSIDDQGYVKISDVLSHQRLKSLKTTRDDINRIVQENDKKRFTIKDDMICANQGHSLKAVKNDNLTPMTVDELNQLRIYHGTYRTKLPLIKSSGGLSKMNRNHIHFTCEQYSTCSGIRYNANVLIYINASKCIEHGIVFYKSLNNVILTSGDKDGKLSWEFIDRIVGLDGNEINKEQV

[22] = THP-1 cell cytotoxicity, dose response, cytotoxicity control for Vif-APOBEC3G degradation inhibitor project, THP-1 cells (AID 1117359); assay type: functional; settings: Human immunodeficiency virus 1, THP-1
[23] = target: Glutathione-S-transferase (Schistosoma japonicum, UniProt Q26513); assay: biotin-GST/anti-GST TR-FRET signal inhibitors, dose response, artefact control for Vif-APOBEC3G degradation inhibitor project, biochemical (AID 1117362); assay type: functional
Glutathione-S-transferase, sequence (Q26513 whole entry): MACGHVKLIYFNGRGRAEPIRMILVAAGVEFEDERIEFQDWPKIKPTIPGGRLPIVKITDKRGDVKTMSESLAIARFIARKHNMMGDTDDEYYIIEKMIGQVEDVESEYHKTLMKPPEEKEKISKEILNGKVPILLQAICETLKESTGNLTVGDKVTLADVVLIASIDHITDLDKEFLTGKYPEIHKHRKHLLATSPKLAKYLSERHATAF

Acyl-homoserine lactone acylase PvdQ, sequence (Q9I194 24-193 limits assumed): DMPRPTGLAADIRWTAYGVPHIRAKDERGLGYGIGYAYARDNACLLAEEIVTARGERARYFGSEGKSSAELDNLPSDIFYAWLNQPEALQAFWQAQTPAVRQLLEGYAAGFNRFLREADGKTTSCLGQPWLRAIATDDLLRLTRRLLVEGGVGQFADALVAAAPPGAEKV
Acyl-homoserine lactone acylase PvdQ, sequence (Q9I194 217-762 limits assumed): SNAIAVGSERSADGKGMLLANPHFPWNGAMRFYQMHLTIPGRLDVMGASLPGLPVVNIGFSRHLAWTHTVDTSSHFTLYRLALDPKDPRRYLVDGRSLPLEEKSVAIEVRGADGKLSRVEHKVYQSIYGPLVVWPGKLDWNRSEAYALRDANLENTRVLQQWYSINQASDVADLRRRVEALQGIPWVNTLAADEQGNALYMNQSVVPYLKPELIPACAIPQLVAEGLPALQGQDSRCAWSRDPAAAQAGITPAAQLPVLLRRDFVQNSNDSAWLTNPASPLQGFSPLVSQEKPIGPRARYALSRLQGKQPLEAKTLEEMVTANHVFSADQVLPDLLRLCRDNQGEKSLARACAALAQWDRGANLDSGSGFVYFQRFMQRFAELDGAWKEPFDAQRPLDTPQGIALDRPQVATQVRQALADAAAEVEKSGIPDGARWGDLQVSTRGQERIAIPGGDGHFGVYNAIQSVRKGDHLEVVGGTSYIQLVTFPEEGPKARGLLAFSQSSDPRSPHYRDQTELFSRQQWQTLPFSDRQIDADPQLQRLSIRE

For `Clc1ccc(-c2nnc(-c3ccco3)o2)cc1`, the AC50 [1] was 24.3 µM (active) and the IC50 [2] was 17.2 µM (active).

For `COc1cc(C)cc(C(=O)O)c1C1=C(O)C(=O)c2c(O)cccc2C1=O`, the IC50 [3] was 5.43 µM (active) and the IC50 [4] was 5.41 µM (active).

For `N=C(N)N/N=C/c1ccc(OCc2ccc(Cl)cc2Cl)cc1`, the EC50 [5] was 21 µM (inconclusive), the EC50 [6] was > 120 µM (not active) and the EC50 [7] was > 120 µM (not active). For the same molecule, the EC50 [8] was > 120 µM (not active), the IC50 [9] was > 50 µM (not active) and the EC50 [10] was 4.19 µM (active). For the same molecule, the IC50 [11] was 7.31 µM (not active), the EC50 [12] was 4.16 µM (active) and the IC50 [13] was > 50 µM (not active). The IC50 [14] was 13 µM (active), the IC50 [15] was 7.26 µM (active) and the IC50 [16] was 5.97 µM (active).

In the case of `CCOC(=O)c1sc(NC(=O)C2C3C=CC(C3)C2C(=O)O)nc1C` (stereo not drawn), the EC50 [17] is reported as > 55.7 µM (not active), the EC50 [18] is reported as > 55.7 µM (not active) and the AC50 [19] is reported as 11.1 µM (active).

For `CCN1CCN(c2cc(N3CCN(C(=O)c4ccco4)CC3)c3c4c(onc24)-c2ccccc2C3=O)CC1`, the IC50 [20] was 7.8 µM (active), the IC50 [21] was 10.7 µM (not active) and the CC50 [22] was > 40 µM (active). For the same molecule, the IC50 [23] was > 100 µM (active).
